In ChEMBL document CHEMBL4354882, “Selective Janus Kinase 2 (JAK2) Pseudokinase Ligands with a Diaminotriazole Core” (J Med Chem, 2020):

The compounds below were run against T1, Tyrosine-protein kinase JAK2 (Homo sapiens, UniProt O60674) (assay: Binding affinity to human C-terminal His8-tagged JAK2 pseudokinase (513 to 827 residues) expressed in baculovirus infected Hi-5 cells by intrinsic tryptophan fluorescence assay).
T1 sequence (O60674 whole entry, the tested form may be a part): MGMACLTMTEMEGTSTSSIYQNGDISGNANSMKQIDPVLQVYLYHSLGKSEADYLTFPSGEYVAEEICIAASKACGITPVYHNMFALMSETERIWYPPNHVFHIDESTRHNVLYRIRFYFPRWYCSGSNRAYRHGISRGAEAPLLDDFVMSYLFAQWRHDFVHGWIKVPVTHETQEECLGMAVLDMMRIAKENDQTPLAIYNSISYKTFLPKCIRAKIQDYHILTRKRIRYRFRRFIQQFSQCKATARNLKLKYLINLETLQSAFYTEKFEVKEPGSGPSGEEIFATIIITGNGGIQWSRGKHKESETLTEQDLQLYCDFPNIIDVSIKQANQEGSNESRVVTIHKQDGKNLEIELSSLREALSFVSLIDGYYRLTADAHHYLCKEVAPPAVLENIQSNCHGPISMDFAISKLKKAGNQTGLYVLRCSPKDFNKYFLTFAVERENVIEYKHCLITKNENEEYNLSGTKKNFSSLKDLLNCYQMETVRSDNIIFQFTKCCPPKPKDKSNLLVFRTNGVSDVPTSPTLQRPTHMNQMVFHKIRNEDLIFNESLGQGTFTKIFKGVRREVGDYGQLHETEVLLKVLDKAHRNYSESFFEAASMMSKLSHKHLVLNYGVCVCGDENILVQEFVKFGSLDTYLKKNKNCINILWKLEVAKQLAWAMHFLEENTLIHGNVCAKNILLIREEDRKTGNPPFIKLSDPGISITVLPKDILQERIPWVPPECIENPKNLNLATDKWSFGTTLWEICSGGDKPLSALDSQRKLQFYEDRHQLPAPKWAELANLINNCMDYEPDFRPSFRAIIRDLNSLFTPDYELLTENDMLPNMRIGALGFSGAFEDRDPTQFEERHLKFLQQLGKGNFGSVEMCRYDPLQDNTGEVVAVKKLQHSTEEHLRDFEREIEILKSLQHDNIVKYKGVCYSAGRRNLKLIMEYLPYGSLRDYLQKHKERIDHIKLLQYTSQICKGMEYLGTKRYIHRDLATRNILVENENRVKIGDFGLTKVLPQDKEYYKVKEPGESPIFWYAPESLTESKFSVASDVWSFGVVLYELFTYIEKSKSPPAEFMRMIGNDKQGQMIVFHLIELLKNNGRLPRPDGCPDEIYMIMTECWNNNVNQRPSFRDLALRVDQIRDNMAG
CC(C)CCN1c2nc(Nc3cc(F)c(O)c(F)c3)ncc2N(C)C(=O)C1C (stereo not drawn) showed a Kd of 0.62 µM.

These compounds were tested against T1, Tyrosine-protein kinase JAK2.
Design: species or system Sf9
In the case of N#Cc1ccc(Nc2nc(N)n(C(=O)Nc3cccc(OCC(=O)O)c3)n2)cc1, the Kd is reported as 4 µM.
CC(C)CCN1c2nc(Nc3cc(F)c(O)c(F)c3)ncc2N(C)C(=O)C1C (stereo not drawn) showed a Kd of 2 µM.
For Nc1nc(Nc2ccc(S(N)(=O)=O)cc2)nn1C(=O)Nc1cccnc1, the Kd was 12.3 µM.
In the case of Nc1nc(Nc2ccc(S(N)(=O)=O)cc2)nn1C(=O)Nc1ccccc1, the Kd is reported as 4.7 µM.
In the case of COC(=O)COc1ccc(NC(=O)n2nc(Nc3ccc(S(N)(=O)=O)cc3)nc2N)cc1, the Kd is reported as 1.9 µM.
In the case of Nc1nc(Nc2ccc(S(N)(=O)=O)cc2)nn1C(=O)Nc1ccc(-c2ccc(C(=O)O)o2)cc1, the Kd is reported as 0.439 µM.
For Nc1nc(Nc2ccc(S(N)(=O)=O)cc2)nn1C(=O)Nc1ccc(-c2nnc(C(=O)O)o2)cc1, the Kd was 7 µM.
CN(C(=O)n1nc(Nc2ccc(S(N)(=O)=O)cc2)nc1N)c1ccccc1 was tested, and the Kd was 47.8 µM.
Nc1nc(Nc2ccc(S(N)(=O)=O)cc2)nn1Cc1c(F)cccc1F was tested, and the Kd was 16.7 µM.
For Nc1nc(Nc2ccc(S(N)(=O)=O)cc2)nn1C(=O)Nc1ccccn1, the Kd was 30.5 µM.

What follows are compounds tested against T1, Tyrosine-protein kinase JAK2 (assay: Binding affinity to wild type 6XHis-tagged human JAK2 JH2 domain (513 to 827 residues) expressed in baculovirus infected Sf9 cells by MANT-ATP binding assay).
For Nc1ncnc2c1ncn2[C@@H]1O[C@H](COP(=O)(O)OP(=O)(O)OP(=O)(O)O)[C@@H](O)[C@H]1O [ADENOSINE TRIPHOSPHATE], the Kd was 1.3 µM.

These compounds were tested against Tyrosine-protein kinase JAK2 (Homo sapiens, UniProt O60674, V617F) (assay: Binding affinity to 6XHis-tagged human JAK2 JH2 domain V617F mutant (513 to 827 residues) expressed in baculovirus infected Sf9 cells by MANT-ATP binding assay).
Sequence of Tyrosine-protein kinase JAK2 (Homo sapiens, UniProt O60674, V617F) (O60674 whole entry V617F, the tested form may be a part): as the sequence (O60674 whole entry, the tested form may be a part) above, with V617F counted along it
Nc1ncnc2c1ncn2[C@@H]1O[C@H](COP(=O)(O)OP(=O)(O)OP(=O)(O)O)[C@@H](O)[C@H]1O [ADENOSINE TRIPHOSPHATE] gave a Kd of 1.3 µM.
